Results published in the Biogen ADME set (Fang et al. 2023).
Converted amounts (≈) assume the structure as drawn.

Details: for aqueous solubility: pH 6.8

| MDR1-MDCK efflux ratio | intrinsic clearance, human liver microsomes [mL/min/kg] | intrinsic clearance, rat liver microsomes [mL/min/kg] | aqueous solubility [µg/mL] | Compound |
| --- | --- | --- | --- | --- |
| 1.82 | 216 | 1520 | 29 | CN(CCOCCOc1ccccc1-c1ccccc1)Cc1ccccc1.O=C(O)C(=O)O |
| 46.8 | 8.66 | 28.4 |  | CNCc1cc(N(C)C)nc(C2CCCN2C(=O)C2CN(Cc3ccc(Cl)cc3)C2)n1 (configuration not stated) |
| 1.9 | ≤ 4.74 | 80.8 |  | CC(=O)N1CCC(CNc2nccc3cccnc23)CC1 |
|  |  |  | 28.6 (≈ 105 µM) | Cc1ncc(CN(C)c2nnc(C)c(C)c2C#N)s1 |
| 1.33 | 234 | 1790 |  | Cc1cccc(OC[C@@]2(O)CN(C[C@]3(O)CC[C@@H](C(C)(C)C)CC3)CC[C@@H]2O)c1 |
| 0.447 |  |  | 0.37 (≈ 1.07 µM) | Cc1ccc(-c2ccc(NC(=O)c3ncoc3-c3ccccc3)cc2)o1 |
| 0.882 | 144 | 1500 | 73.9 (≈ 228 µM) | Cc1cccc(N2CCN(C(=O)c3cncnc3C(C)C)CC2)c1 |
|  | ≤ 4.74 | 170 |  | CNc1ncc2cc(-c3ccc(-c4cccc(C)n4)cc3Cl)c(=O)n(C[C@H]3OC[C@H](N)CO3)c2n1 |
| 3.06 | 21.7 | 619 | 4.13 (≈ 11.8 µM) | O=C1CC2(CCN(C(=O)NCc3ccccc3)CC2)Oc2ccccc21 |
|  |  |  | 1.71 (≈ 7.3 µM) | N#Cc1ccc(COc2ccccc2C#N)cc1 |
| 0.634 | ≤ 4.74 | 60.7 | 28.2 (≈ 130 µM) | Cc1cccn(Cc2ccccc2F)c1=O |
|  | 204 | 469 |  | CC1(C)CC(=O)c2c(C(F)(F)F)nn(-c3ccc(C(N)=O)c(N[C@H]4CC[C@H](OC(=O)CN)CC4)c3)c2C1 |
|  |  |  | 143 (≈ 648 µM) | NCCC(=O)Nc1ccc2[nH]c(=O)[nH]c2c1 |
| 1.57 | 12.5 | 114 |  | CC(=O)Nc1ccc(CNCCOc2ccc(F)cc2F)cc1 |
|  | 276 | 285 | 7.52 (≈ 30.3 µM) | Cc1ccc(NC(=O)c2cc(F)cc(F)c2)nc1 |
| 0.56 | 41.3 | 226 | 24.9 (≈ 113 µM) | CCCCN(C)C(=O)Nc1cc(C)ccn1 |
| 0.527 | 133 | 1580 | 16.1 (≈ 47.3 µM) | COc1cccc(CN2Cc3ccccc3OC3(CCOCC3)C2)c1 |
| 0.601 | 64.6 | 128 | 26.8 (≈ 92 µM) | Cc1cc(CNc2ncc(C(F)(F)F)cc2Cl)no1 |
| 0.951 | 150 | 724 | 25.7 (≈ 65.5 µM) | Cc1cccc(NC(=O)CN2CCCN(c3ccc(C(F)(F)F)cn3)CC2)c1 |
| 6.16 | ≤ 4.74 | ≤ 10.7 | 50.5 (≈ 173 µM) | CNC(=O)N1CCc2nc3ccc(Cl)cn3c(=O)c2C1 |
|  | ≤ 4.74 | ≤ 10.7 | 37.8 (≈ 145 µM) | O=C(NCc1ccc(O)cc1)Nc1ccncc1F |

| MDR1-MDCK efflux ratio | intrinsic clearance, human liver microsomes [mL/min/kg] | intrinsic clearance, rat liver microsomes [mL/min/kg] | aqueous solubility [µg/mL] | Compound |
| --- | --- | --- | --- | --- |
| 0.723 |  |  | 0.42 (≈ 1.06 µM) | Cc1nc(-c2ccccc2)c(C(=O)Nc2ccc(Cl)c(C(F)(F)F)c2)s1 |
|  |  |  | 0.5 (≈ 1.47 µM) | CCn1c(=O)c2c(nc3n2CCN3c2cc(C)cc(C)c2)n(C)c1=O |
| 9.31 | 155 | 1170 | 1.5 (≈ 3.61 µM) | CN1C(=O)COc2ccc(NC(=O)CCN3C(=O)COc4ccc(Cl)cc43)cc21 |
| 4.62 | 110 | 160 |  | CC(C)(C)OC(=O)NCCCC(=O)N[C@H]1C[C@@H](n2cnc3c(NCc4ccccc4)ncnc32)[C@@H](O)[C@H]1O |
| 35.1 | 50.6 | 390 |  | CNCc1cc(N(C)C)nc(C2CCCN2C(=O)CCc2c[nH]c3ccccc23)n1 (configuration not stated) |
| 0.696 | 398 | 1800 |  | Cc1cc(F)ccc1-c1nc(CCn2c(C)nc3ccccc32)no1 |
| 0.72 | 92.8 | 1360 | 42.3 (≈ 124 µM) | CCCOc1ccccc1C(=O)N1CC(Oc2cccc(OC)c2)C1 |
|  | ≤ 4.74 | ≤ 10.7 |  | O=C(CN1CCCC1=O)N1CCc2nc3sccc3c(=O)n2CC1 |
| 8.23 | ≤ 4.74 | ≤ 10.7 | 28.8 (≈ 130 µM) | Cn1cncc1CCNC(=O)[C@H]1CC1(C)C |
| 0.72 | 24 | 94.8 |  | Cn1nc(N)c2ccc(Br)cc21 |
| 0.814 | ≤ 4.74 | 20 | 37.5 (≈ 183 µM) | CCn1c(=O)n(CC)c2cc(N)ccc21 |
|  | 25.8 | 597 |  | CCc1cc2c(OCC(=O)N3CCCC3)ncnc2s1 |
| 1.25 | 51 | 855 | 55.4 (≈ 185 µM) | CCc1noc(CN2CCCN(C(C)=O)c3ccccc32)n1 |
|  | 66.8 | 2380 |  | COc1cc(CN[C@@H]2CCC[C@H]2Cc2cc(C)no2)ccc1OC(C)C |
|  | ≤ 4.74 | 123 | 50 (≈ 153 µM) | O=C(NC1CCCCC1)N1CCc2nc3ccccn3c(=O)c2C1 |
| 2 | ≤ 4.74 | ≤ 10.7 | 42.8 (≈ 184 µM) | Cc1ccc(CC(=O)Nc2nc(C)no2)cn1 |
| 3.89 | ≤ 4.74 | 51.1 |  | Cn1cc(C(C)(C)NC(=O)C#Cc2ccc3c(c2)OCO3)cn1 |
| 0.646 | 293 | 1260 |  | CCOC(=O)c1cccnc1SCc1cccnc1 |
| 0.634 | ≤ 4.74 | 30.1 |  | N#Cc1c(F)cccc1Oc1cccnc1 |
| 0.579 | ≤ 4.74 | 2980 |  | CCS(=O)(=O)N(C)c1ccc(N(C)C)cc1 |

| Compound | MDR1-MDCK efflux ratio | intrinsic clearance, human liver microsomes [mL/min/kg] | intrinsic clearance, rat liver microsomes [mL/min/kg] | aqueous solubility [µg/mL] |
| --- | --- | --- | --- | --- |
| COc1ccc2nc3c(cc2c1)CNCCO3 | 0.504 | 18.1 | 82.4 |  |
| O=C1NCN(c2ccccc2)C12CCN(CCCOc1ccc(F)cc1)CC2 |  | 74.3 | 548 | 50.9 (≈ 133 µM) |
| Cc1cc(CN2CCC(N(C)c3ncc(Cl)cn3)CC2)on1 | 0.58 | 16 | 127 |  |
